Reference: patent publication US20050050594A1, “Tryptophan synthase as a site of herbicide action” (priority 1999, published 2005)
Like-named read-outs stand apart in the source and are kept apart here.

Assays:
[1] = molecular target: T1, Salmonella typhimurium tryptophan synthase holoenzyme (α2β2), TSα reaction (Salmonella typhimurium, UniProt P00929); test: Inhibition of tryptophan synthase by the TSα reaction, microtiter kinetic coupled enzyme assay; assay type: biochemical; conditions: for activity in enzyme inhibitory assays, relative to inhibitors 1-5: comparison within the series of inhibitors 1 to 5
T1 construct: made in house; host or cells: E. coli strain CB149pSTB7
T1 sequence (P00929 whole entry): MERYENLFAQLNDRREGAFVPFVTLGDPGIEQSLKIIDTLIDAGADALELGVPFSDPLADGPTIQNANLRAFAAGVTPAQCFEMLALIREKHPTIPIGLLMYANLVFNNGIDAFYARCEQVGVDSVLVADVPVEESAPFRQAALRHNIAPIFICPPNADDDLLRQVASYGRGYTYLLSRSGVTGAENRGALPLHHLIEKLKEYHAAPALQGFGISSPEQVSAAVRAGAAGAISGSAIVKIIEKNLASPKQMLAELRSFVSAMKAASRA
T1 sequence (P0A2K1 2-397, further chain): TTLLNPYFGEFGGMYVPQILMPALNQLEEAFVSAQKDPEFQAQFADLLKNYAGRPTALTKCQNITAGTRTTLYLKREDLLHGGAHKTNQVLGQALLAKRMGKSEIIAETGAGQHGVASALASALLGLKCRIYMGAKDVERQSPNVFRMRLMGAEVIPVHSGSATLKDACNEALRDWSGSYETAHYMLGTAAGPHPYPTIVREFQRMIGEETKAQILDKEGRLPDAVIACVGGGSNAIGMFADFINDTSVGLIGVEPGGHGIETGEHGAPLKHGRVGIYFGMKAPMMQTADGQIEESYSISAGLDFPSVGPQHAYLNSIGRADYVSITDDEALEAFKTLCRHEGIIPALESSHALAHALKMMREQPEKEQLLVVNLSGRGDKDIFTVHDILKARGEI
Description: Inhibitors of TS were identified by their ability to inhibit the production of glyceraldehyde-3-P by the TSα reaction of the Salmonella typhimurium holoenzyme (α2β2) in the presence of a limiting amount of indole-3-glycerolphosphate and an excess of serine
The assay was developed as a new microtiter plate kinetic enzyme assay based on the combined methods of Creighton (EurJBch 13:1-10, 1970) and Creighton and Yanofsky (JBC 241:980, 1966) with modifications. The rate of glyceraldehyde production was measured as the linear […] (spectrophotometric absorbance at 340 nm) in the presence of glyceraldehyde-3-phosphate dehydrogenase in a coupled enzyme assay.
The assay solution contained a test inhibitor compound, 50 mM Tris-Cl (pH 7.8), 6 mM sodium arsenate, 5 μg/ml pyridoxal phosphate, 0.5 mM DTT, 0.18M NaCl, 60 mM serine, 1.6 mM NAD+, 8 e.u./ml yeast glyceraldehyde-3-phosphate dehydrogenase (Sigma, Catalog #G2647; Kirschner et al., Eur J Bch, 1975, 60:513 and approximately 1.5 e.u. Salmonella TS. 100 μM IGP was added to start the reaction, which was run at 37° C. and using 300 μl per assay in a microtiter plate.
The substrate IGP was used at 1.5 to 2 times its Km concentration to enhance the likelihood of identifying weak inhibitors, binding at the substrate binding site. This approach to identifying enzyme inhibitors was novel, since an excess of all substrates, (at least 5-times the Km value of each), is conventionally used in the measurement of enzyme activity.
Potential inhibitors were evaluated by adding 100 μM inhibitor (equimolar to substrate IGP):or less, in a 1:1 dilution series down from 100 μM, until the inhibition measured was less than 15%. Reaction rates at Vmax were compared in the presence and absence of inhibitors.
In addition, some weaker inhibitors were identified following preincubation of the inhibitor with the TS assay mix for 24 hrs prior to the addition of IGP. The identifying weaker inhibitors is to aid in a quantitative structure activity relationship (QSAR) evaluation, or to identify new herbicidal inhibitor leads. The previously known inhibitor IPP was used as a standard in all tests, where the I50 for IPP was 1-2 uM.

[2] = test system: a variety of dicotyledonous and monocotyledonous plants; test: Postemergence greenhouse herbicidal test; assay type: in vivo; conditions: for activity in herbicidal (biological) assays, relative to inhibitors 1-5: comparison within the series of inhibitors 1 to 5
Description: The herbicidal activity of the compounds was tested as described in the U.S. Pat. No. 5,635,449. […] In the tests, seedling plants are grown in jiffy flats for about two weeks. The test compounds are dispersed in 50/50 acetone/water mixtures containing 0.5% TWEEN®20, a polyoxyethylene sorbitan monolaurate surfactant of Atlas Chemical Industries, in sufficient quantities to provide the equivalent of about 1.0 kg to 8.0 kg per hectare of test compound when applied to the plants through a spray nozzle operating at 40 psi for a predetermined time. After spraying, the plants are placed on greenhouse benches and are cared for in the usual manner, commensurate with conventional greenhouse practices. From four to five weeks after treatment, the seedling plants are examined and rate according to the rating system set forth below.

Arabidopsis thaliana = test: Herbicidal activity and tryptophan reversal on Arabidopsis grown on agar medium; assay type: in vivo; parameters: key: 0 - no effect; 9 - total kill; C - chlorotic seedlings 4-6 days after treatment
Description: In this experiment, TS inhibitors were tested on Arabidopsis thaliana grown Murashige minimal organics medium, (obtained from Life Technologies, Grand Island, N.Y.), containing 0.7% agar. Compounds were tested at different concentrations to assess their herbicidal activity.

Arabidopsis TS enzyme = molecular target: T2, Arabidopsis TS enzyme (Arabidopsis thaliana, UniProt Q42529); test: TSα assay with recombinant plant TSα and TSβ expressed in E. coli; assay type: biochemical; conditions: inhibitor 82 uM; pAC 758 (1.5 ug) + pAC 755 (3 ug)
T2 construct: GST (N, cleaved yes); made in house; host or cells: E. coli DH5α (pGEX-2T constructs)
T2 sequence (Q42529 with tags, fused parts or gaps): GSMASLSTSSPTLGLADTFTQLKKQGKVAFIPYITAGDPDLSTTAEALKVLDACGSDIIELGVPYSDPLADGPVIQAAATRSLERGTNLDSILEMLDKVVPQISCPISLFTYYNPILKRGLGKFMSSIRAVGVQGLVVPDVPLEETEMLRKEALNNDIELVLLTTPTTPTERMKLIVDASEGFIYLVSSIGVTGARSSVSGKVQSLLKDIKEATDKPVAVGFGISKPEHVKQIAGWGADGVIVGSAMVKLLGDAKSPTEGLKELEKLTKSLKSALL
T2 sequence (P14671 with tags, fused parts or gaps partner): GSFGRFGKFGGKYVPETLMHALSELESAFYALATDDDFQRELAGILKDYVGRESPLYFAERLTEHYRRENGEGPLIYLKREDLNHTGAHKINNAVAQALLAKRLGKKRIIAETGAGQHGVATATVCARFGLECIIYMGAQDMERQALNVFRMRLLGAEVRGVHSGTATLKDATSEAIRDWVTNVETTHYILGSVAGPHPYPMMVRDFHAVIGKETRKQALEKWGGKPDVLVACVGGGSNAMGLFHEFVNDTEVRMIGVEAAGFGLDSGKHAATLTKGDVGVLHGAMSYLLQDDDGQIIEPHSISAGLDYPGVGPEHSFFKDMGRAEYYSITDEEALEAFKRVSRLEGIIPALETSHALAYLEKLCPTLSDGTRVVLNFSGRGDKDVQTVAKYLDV
Description: The plant TS proteins were expressed as fusion proteins with glutathione transferase (GST) to facilitate purification. After purification, the GST protein was cleaved off with thrombin as described above before the plant TS assays were performed. After thrombin cleavage, both TSα and TSβ-subunit proteins retained a Gly-Ser residue on the N-terminal of the protein in addition to the TS sequence. […]
The TSα enzyme assay was conducted as described in Example 3 for Salmonella TSα.
Specifically, phenylthiophosphonic acid compounds were used. The TSα assay conditions were as described for Salmonella TSα in Example 3 except that recombinant plant proteins were used instead of the Salmonella enzyme.

Synechocystis PCC 6803 = test: End-product reversal in Synechocystis, culture growth in liquid medium; assay type: cell-based; conditions: for Culture density (%) / Culture density as A420: four days
Description: Synechocystis is a unicellular green organism that is actually a photosynthetic bacterium, with a photosynthetic system very similar to that of higher plant chloroplasts. Culture growth of Synechocystis could be inhibited by a compound of the present invention, and the growth inhibition could be prevented in the presence of tryptophan.

[3] = I50 TS, TSα reaction of the highly purified Salmonella typhimiurium holoenzyme
[4] = post emergence greenhouse test, 4 kg/ha
[5] = I50 TS, TSα reaction of Salmonella holoenzyme
[6] = inhibitor 62 μM, +tryptophan 31 μM
[7] = inhibitor 62 μM, +tryptophan 62 μM
[8] = inhibitor 125 μM, +tryptophan 31 μM
[9] = inhibitor 125 μM, +tryptophan 62 μM
[10] = inhibitor 125 μM, no tryptophan

O=P(O)(O)CCCc1c[nH]c2ccccc12 [Compound 7a]
IC50 [1, 3]: 125000 nM
Herbicidal Activity [2, 4]: inactive

O=P(O)(O)CCCCc1c[nH]c2ccccc12 [Compound 7b, Phosphonic acid, [4-(indol-3-yl)butyl]-]
IC50 [1, 3]: 20000 nM
IC50 ([1]; TS inhibition I50, TSα reaction, Salmonella holoenzyme, 30 min at 37° C., 100 μM IGP): 20000 nM
Herbicidal Activity [2, 4]: weak (weak activity = maximum 20-30% injury on any species)

Nc1ccccc1SCCCCP(=O)(O)O [Compound 13, 4-(2-aminophenylthio)-butylphosphonic acid]
IC50 ([1]; TSα reaction of Salmonella holoenzyme, read-out: I50 TS): 400 nM
activity in enzyme inhibitory assays, relative to inhibitors 1-5 [1]: weakest activity
Herbicidal Activity ([2]; Postemergence application): + (+ = 30-80% injury to one species)
activity in herbicidal (biological) assays, relative to inhibitors 1-5 [2]: weakest activity

O=P(O)(O)C=CCCSc1ccccc1O [Compound 28, {4-[(o-hydroxyphenyl)thio]-1-butenyl}phosphonic acid]
IC50 [1, 5]: 570 nM
Herbicidal Activity ([2]; Postemergence application): ++++ (++++ = 80-100% injury to more than three species)
herbicidal rating (Arabidopsis thaliana; herbicide 7.8 mM + 100 μM Trp): 0
herbicidal rating (Arabidopsis thaliana; herbicide 7.8 mM, no Trp): 5C
herbicidal rating (Arabidopsis thaliana; herbicide 16 mM + 100 μM Trp): 0
herbicidal rating (Arabidopsis thaliana; herbicide 16 mM, no Trp): 5C
herbicidal rating (Arabidopsis thaliana; herbicide 31 mM + 100 μM Trp): 0
herbicidal rating (Arabidopsis thaliana; herbicide 31 mM, no Trp): 5C
herbicidal rating (Arabidopsis thaliana; herbicide 63 mM + 100 μM Trp): 0
herbicidal rating (Arabidopsis thaliana; herbicide 63 mM, no Trp): 6C
herbicidal rating (Arabidopsis thaliana; herbicide 125 mM + 100 μM Trp): 0
herbicidal rating (Arabidopsis thaliana; herbicide 125 mM, no Trp): 6C
herbicidal rating (Arabidopsis thaliana; herbicide 250 mM + 100 μM Trp): 0
herbicidal rating (Arabidopsis thaliana; herbicide 250 mM, no Trp): 6C
herbicidal rating (Arabidopsis thaliana; herbicide 500 mM + 100 μM Trp): 0
herbicidal rating (Arabidopsis thaliana; herbicide 500 mM, no Trp): 6C
herbicidal rating (Arabidopsis thaliana; herbicide 1000 mM + 100 μM Trp): 0
herbicidal rating (Arabidopsis thaliana; herbicide 1000 mM, no Trp): 6C

O=P(O)(O)C=CCCSc1cc(Br)ccc1O [Compound 31, Phosphonic acid, {4-[(5-bromo-2-hydroxyphenyl)thio]-1-butenyl}-]
IC50 [1, 5]: 260 nM
Herbicidal Activity ([2]; Postemergence application): + (+ = 30-80% injury to one species)
TSα activity, % of control (Arabidopsis TS enzyme): 16.1 % of control
TSα activity, relative Vmax (Arabidopsis TS enzyme): 0.238 mOD/min

O=P(O)(O)CCCC[S+]([O-])c1ccccc1O (stereo not shown) [Compound 32, {4-[(o-hydroxyphenyl)sulfinyl]butyl}phosphonic acid]
IC50 [1, 5]: 440 nM
Herbicidal Activity ([2]; Postemergence application): +++ (+++ = 80-100% injury to two species)
TSα activity, % of control (Arabidopsis TS enzyme): 1.5 % of control
TSα activity, relative Vmax (Arabidopsis TS enzyme): 0.095 mOD/min

CC(C)N.CC(C)N.O=P(O)(O)C=CCCSc1ccccc1O [Inhibitor 1, 4-(2-hydroxyphenylthio)-1-butenylphosphonic acid, 1:2 salt with isopropylamine]
activity in enzyme inhibitory assays, relative to inhibitors 1-5 [1]: highest activity
activity in herbicidal (biological) assays, relative to inhibitors 1-5 [2]: highest activity

O=C(Oc1ccccc1SCCCCP(=O)(O)O)c1ccccc1 [Phosphonic acid, {4-[(2-hydroxyphenyl)thio]butyl}-, benzoate (ester)]
TSα activity, % of control (Arabidopsis TS enzyme): 2.7 % of control
TSα activity, relative Vmax (Arabidopsis TS enzyme): 0.168 mOD/min
effect of tryptophan on the growth inhibitory effects (Synechocystis PCC 6803): completely reversed
Culture density (%) (Synechocystis PCC 6803; [6]): 136%
Culture density as A420 (Synechocystis PCC 6803; [6]): 0.726
Culture density (%) (Synechocystis PCC 6803; [7]): 132%
Culture density as A420 (Synechocystis PCC 6803; [7]): 0.704
Culture density (%) (Synechocystis PCC 6803; inhibitor 62 μM, no tryptophan): 84%
Culture density as A420 (Synechocystis PCC 6803; inhibitor 62 μM, no tryptophan): 0.449
Culture density (%) (Synechocystis PCC 6803; [8]): 116%
Culture density as A420 (Synechocystis PCC 6803; [8]): 0.622
Culture density (%) (Synechocystis PCC 6803; [9]): 102%
Culture density as A420 (Synechocystis PCC 6803; [9]): 0.544
Culture density (%) (Synechocystis PCC 6803; [10]): 7%
Culture density as A420 (Synechocystis PCC 6803; [10]): 0.040
